From PubChem BioAssay AID651798 (Broad Institute, 2012)
Active and inactive are the calls of the source.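 The calls were made as follows: active = fitted AC50 at or below twice the top valid dose, with signal falling as dose rises; inconclusive = flat fit between -30 and -70%, or poor fit; inactive = the rest, including rising effects.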

Each compound was assayed against Kelch-like ECH-associated protein 1 (Homo sapiens) (UniProt Q14145) (assay: Keap1-Nrf2 protein-protein interaction inhibitors, dose response, biochemical, fluorescence polarization, dry powder samples (AID 651798)). Details: Keap1 Kelch/FITC-Nrf2 peptide fluorescence polarization.
Kelch-like ECH-associated protein 1 (Homo sapiens), sequence (Q14145 whole entry, looked up): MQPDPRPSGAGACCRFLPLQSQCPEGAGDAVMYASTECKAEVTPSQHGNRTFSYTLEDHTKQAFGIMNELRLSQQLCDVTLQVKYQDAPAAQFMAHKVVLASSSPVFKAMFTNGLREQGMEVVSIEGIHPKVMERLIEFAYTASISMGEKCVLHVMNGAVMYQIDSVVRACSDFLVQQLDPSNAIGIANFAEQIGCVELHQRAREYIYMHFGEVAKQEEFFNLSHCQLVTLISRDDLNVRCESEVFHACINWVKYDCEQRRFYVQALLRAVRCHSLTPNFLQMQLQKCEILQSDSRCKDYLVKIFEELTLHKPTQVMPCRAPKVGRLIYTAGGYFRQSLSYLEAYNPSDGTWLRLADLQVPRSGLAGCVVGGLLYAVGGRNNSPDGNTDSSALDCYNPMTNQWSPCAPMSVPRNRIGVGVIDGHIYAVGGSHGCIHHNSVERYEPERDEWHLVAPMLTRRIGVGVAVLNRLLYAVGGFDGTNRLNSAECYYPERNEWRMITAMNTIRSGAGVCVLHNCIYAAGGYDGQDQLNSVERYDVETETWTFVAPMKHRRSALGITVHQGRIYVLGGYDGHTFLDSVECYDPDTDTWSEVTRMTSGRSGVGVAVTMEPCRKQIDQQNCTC

Structure (SMILES) | AC50
CC(=O)Nc1cc(NS(=O)(=O)c2c(C)cc(C)cc2C)c2ccccc2c1O | 15.2 µM
O=C(O)[C@H]1CCCC[C@H]1C(=O)N1CCC2=C(CCCC2)C1CN1C(=O)c2ccccc2C1=O (stereo partly drawn) | > 100 µM (inactive)
CC(C)OC(=O)C(C(=O)C(F)(F)F)c1cc(NS(=O)(=O)c2ccccc2)c2ccccc2c1O (stereo not drawn) | 21.8 µM
Cc1ccc(S(=O)(=O)Nc2cc(C(C(=O)OC(C)C)C(=O)C(F)(F)F)c(O)c3ccccc23)cc1 (stereo not drawn) | 7.25 µM
O=C(O)Cc1ccccc1C(=O)N1CCc2ccccc2[C@H]1CN1C(=O)c2ccccc2C1=O | 28.3 µM
COC(=O)C(C(=O)OC)c1cc(NS(=O)(=O)c2c(C)cc(C)cc2C)c2ccccc2c1O | 34.2 µM
O=C(O)[C@H]1C2C=CC(C2)[C@H]1C(=O)N1CCc2ccccc2C1CN1C(=O)c2ccccc2C1=O (stereo partly drawn) | > 100 µM (inactive)
Cc1ccc(S(=O)(=O)Nc2cc(C(C(=O)OC(C)C)C(=O)C(F)(F)F)c(O)c3ccccc23)c(C)c1 (stereo not drawn) | 2.26 µM
Cc1cc(C)c(S(=O)(=O)Nc2cc(C(C(=O)OC(C)C)C(=O)C(F)(F)F)c(O)c3ccccc23)c(C)c1 (stereo not drawn) | 0.673 µM
Cc1ccccc1S(=O)(=O)Nc1cc(C(C(=O)OC(C)C)C(=O)C(F)(F)F)c(O)c2ccccc12 (stereo not drawn) | 3.2 µM

Results, then the compound that gave them:

AC50 | Structure (SMILES)
> 100 µM (inactive) | NC(=O)c1ccccc1C(=O)NC[C@@H]1c2ccccc2CCN1C(=O)[C@@H]1CCCC[C@@H]1C(=O)O
> 100 µM (inactive) | Cc1ccc(S(=O)(=O)NC(=O)[C@@H]2c3ccccc3CCN2C(=O)[C@@H]2CCCC[C@@H]2C(=O)O)cc1
31.9 µM | O=C(O)C1CCCCC1C(=O)N1CCc2ccccc2C1CN1Cc2ccccc2C1=O (stereo not drawn)
> 100 µM (inactive) | O=C(O)C1CCCCC1C(=O)N1CCc2ccccc2C1CN1C(=O)[C@H]2CCCC[C@H]2C1=O (stereo partly drawn)
> 100 µM (inactive) | O=C(NCCc1ccccc1)c1ccccc1C(=O)NC[C@@H]1c2ccccc2CCN1C(=O)C1CCCCC1C(=O)O (stereo partly drawn)
> 100 µM (inactive) | O=C(O)C1CCCCC1C(=O)N1CCc2ccccc2C1CN1C(=O)Cc2ccccc2C1=O (stereo not drawn)

Same assay, conditions: Keap1 Kelch/FITC-Nrf2 peptide fluorescence polarization; at 12 µM (top of the series)

activity change, negative = inhibition | Structure (SMILES)
inactive | O=C1c2ccccc2C(=O)N1CC1c2ccccc2CCN1C(=O)Cc1ccccc1 (stereo not drawn)

Same assay, conditions: Keap1 Kelch/FITC-Nrf2 peptide fluorescence polarization; at 50 µM (top of the series)

Structure (SMILES) | activity change, negative = inhibition
O=C(O)CCCC(=O)N1CCc2ccccc2C1CN1C(=O)c2ccccc2C1=O (stereo not drawn) | inactive
CC(C)CNc1nc(NS(=O)(=O)c2ccccc2)c2ccccc2n1 | inactive
O=C(O)[C@H]1CCCC[C@H]1C(=O)N1CCc2ccccc2C1 (racemic) | inactive
O=C(O)CC(=O)N1CCc2ccccc2C1CN1C(=O)c2ccccc2C1=O (stereo not drawn) | inactive
Cc1cc(C)c(S(=O)(=O)Nc2nc(N(C)C)nc3ccccc23)c(C)c1 | inactive
Cc1ccc(S(=O)(=O)NC2=CC(=N[C@@H](C)C(=O)OC(C)(C)C)C(=O)c3ccccc32)c(C)c1 | inactive
Cc1cc(C)c(S(=O)(=O)Nc2nc(C(C(=O)OC(C)C)C(=O)C(F)(F)F)nc3ccccc23)c(C)c1 (stereo not drawn) | inactive
Cc1cc(C)c(S(=O)(=O)Nc2ncnc3ccccc23)c(C)c1 | inactive
O=C(O)[C@H]1CCCC[C@H]1C(=O)NC(CN1C(=O)c2ccccc2C1=O)c1ccccc1 (stereo partly drawn) | inactive
O=C(O)[C@H]1CCCC[C@H]1C(=O)N1CCC2=C(CCCC2)C1CN1C(=O)c2ccccc2C1=O (stereo partly drawn) | inactive
O=C(O)C1CCCCC1C(=O)N1CCCCC1CN1C(=O)c2ccccc2C1=O (stereo not drawn) | inactive
O=C1c2ccccc2C(=O)N1CC1=NCCc2ccccc21 | inactive
COC(=O)CNc1nc(NS(=O)(=O)c2c(C)cc(C)cc2C)c2ccccc2n1 | inactive
O=C(Oc1cc(CN2C(=O)c3ccccc3C2=O)c2ccccc2[n+]1[O-])c1cccc(Cl)c1 | inactive
Cc1cc(C)c(S(=O)(=O)Nc2cc(C(C(=O)OCc3ccccc3)C(=O)OCc3ccccc3)c(O)c3ccccc23)c(C)c1 | inactive
O=C1c2ccccc2C(=O)N1C[C@@H]1c2ccccc2CCN1C(=O)OCc1ccccc1 | inactive
O=C(O)/C=C\C(=O)N1CCc2ccccc2C1CN1C(=O)c2ccccc2C1=O (stereo not drawn) | inactive
Cc1ccc(S(=O)(=O)NNc2nc(N3CC(O)CC3C(=O)O)nc3ccccc23)cc1 (stereo not drawn) | inactive

Structure (SMILES) | activity change, negative = inhibition
C[C@H](NC(=O)C1CCCC[C@H]1C(=O)O)c1ccccc1 (mixture of isomers) | inactive
O=C(O)C1CCCCC1C(=O)Nc1ccccc1CN1C(=O)c2ccccc2C1=O (stereo not drawn) | inactive
CCOC(=O)C(C(=O)OCC)c1cc(CNS(=O)(=O)c2ccc(C)cc2C)c2ccccc2n1 | inactive
O=C(O)[C@@H]1CCCN1C(=O)N1CCc2ccccc2[C@H]1CN1C(=O)c2ccccc2C1=O | inactive
CCOC(=O)C(C(=O)OCC)c1cc(CN2C(=O)c3ccccc3C2=O)c2ccccc2n1 | inactive
O=C(O)C1CCCCC1C(=O)N1CCc2ccccc2[C@H]1C(=O)NC12CC3CC(CC(C3)C1)C2 (stereo partly drawn) | inactive
Cc1ccc(S(=O)(=O)NNc2nc(C(C(=O)OC(C)C)C(=O)C(F)(F)F)nc3ccccc23)cc1 (stereo not drawn) | inactive
COc1ccc(CCN=C2C=C(NS(=O)(=O)c3c(C)cc(C)cc3C)c3ccccc3C2=O)cc1 | inactive
O=C(O)c1ccccc1C(=O)N1CCc2ccccc2C1CN1C(=O)c2ccccc2C1=O (stereo not drawn) | inactive
CCOC(=O)C(C(=O)OCC)c1nc(NS(=O)(=O)c2c(C)cc(C)cc2C)c2ccccc2n1 | inactive
O=C(O)CCC(=O)N1CCc2ccccc2C1CN1C(=O)c2ccccc2C1=O (stereo not drawn) | inactive
CCOC(=O)Cc1nc(NS(=O)(=O)c2c(C)cc(C)cc2C)c2ccccc2n1 | inactive
Cc1cc(C)c(S(=O)(=O)Nc2nc(NCCO)nc3ccccc23)c(C)c1 | inactive
C[C@@H](NC(=O)C1CCCC[C@H]1C(=O)O)c1ccccc1 (mixture of isomers) | inactive
Cc1ccc(S(=O)(=O)NNc2nc(NCC(N)=O)nc3ccccc23)cc1 | inactive
O=C1c2ccccc2C(=O)N1C[C@H]1NCCc2ccccc21 | inactive
O=S(=O)(Nc1nc(NCC2CCCCC2)nc2ccccc12)c1ccccc1 | inactive

Now from value to compound:

activity change, negative = inhibition | Structure (SMILES)
inactive | O=C(Cc1ccccc1)NC[C@@H]1c2ccccc2CCN1C(=O)[C@@H]1CCCC[C@@H]1C(=O)O
inactive | O=C(O)[C@H]1CCCC[C@H]1C(=O)N1CCc2ccccc2[C@H]1CNS(=O)(=O)c1ccccc1
inactive | O=C(NC[C@@H]1c2ccccc2CCN1C(=O)[C@@H]1CCCC[C@@H]1C(=O)O)c1ccccc1
inactive | O=C(O)c1ccccc1C(=O)NC[C@@H]1c2ccccc2CCN1C(=O)[C@@H]1CCCC[C@@H]1C(=O)O
inactive | Cc1ccc(S(=O)(=O)NC(=O)[C@@H]2c3ccccc3CCN2C(=O)[C@@H]2CCCC[C@@H]2C(=O)O)cc1
inactive | O=C(O)C1CCCCC1C(=O)N1CCc2ccccc2[C@H]1C(=O)NCCc1ccccc1 (stereo partly drawn)
inactive | COC(=O)[C@@H]1CCCC[C@@H]1C(=O)N1CCc2ccccc2[C@@H]1CN1C(=O)c2ccccc2C1=O
inactive | Cc1ccc(S(=O)(=O)NC[C@@H]2c3ccccc3CCN2C(=O)[C@@H]2CCCC[C@@H]2C(=O)O)c(C)c1
inactive | COc1ccccc1CCNC(=O)[C@@H]1c2ccccc2CCN1C(=O)C1CCCCC1C(=O)O (stereo partly drawn)
inactive | COC(=O)C1CCCCC1C(=O)N1CCc2ccccc2C1CN1C(=O)c2ccccc2C1=O (stereo not drawn)
inactive | O=C1c2ccccc2C(=O)N1C[C@@H]1c2ccccc2CCN1C(=O)C1CCCCC1
inactive | COC(=O)[C@@H]1CCCC[C@@H]1C(=O)N1CCc2ccccc2[C@H]1CN1C(=O)c2ccccc2C1=O
inactive | O=C(O)C1CCCCC1C(=O)NCC1c2ccccc2CCN1C(=O)Cc1ccccc1 (stereo not drawn)
inactive | O=C(O)[C@H]1CCCC[C@H]1C(=O)N1CCc2ccccc2[C@H]1CNS(=O)(=O)c1ccc([N+](=O)[O-])cc1
inactive | O=C(O)[C@H]1CCCC[C@H]1C(=O)N1CCc2ccccc2C1CCN1C(=O)c2ccccc2C1=O (stereo partly drawn)
inactive | O=C(O)[C@H]1CCCC[C@H]1C(=O)N1CCc2ccccc2[C@H]1CNc1nc(Cl)nc2ccccc12
inactive | COC(=O)[C@H]1CCCC[C@H]1C(=O)N1CCc2ccccc2[C@H]1CN1C(=O)c2ccccc2C1=O
inactive | O=C(NC[C@@H]1c2ccccc2CCN1C(=O)[C@@H]1CCCC[C@@H]1C(=O)O)c1ccccc1CO
inactive | O=C(NC[C@@H]1c2ccccc2CCN1C(=O)[C@@H]1CCCC[C@@H]1C(=O)O)c1ccc(CCl)cc1
inactive | O=C(O)C1CCCCC1C(=O)N1CCc2ccccc2C1c1ccccc1 (stereo not drawn)
inactive | O=C(NCCCN1CCOCC1)c1ccccc1C(=O)NC[C@@H]1c2ccccc2CCN1C(=O)C1CCCCC1C(=O)O (stereo partly drawn)
inactive | O=C(NC[C@@H]1c2ccccc2CCN1C(=O)[C@@H]1CCCC[C@@H]1C(=O)O)OCC1c2ccccc2-c2ccccc21
inactive | O=C(NCCO)c1ccccc1C(=O)NC[C@@H]1c2ccccc2CCN1C(=O)C1CCCCC1C(=O)O (stereo partly drawn)
inactive | C=CC(=O)NC[C@@H]1c2ccccc2CCN1C(=O)[C@@H]1CCCC[C@@H]1C(=O)O
inactive | NC(=O)[C@H]1CCCC[C@H]1C(=O)N1CCc2ccccc2[C@H]1CN1C(=O)c2ccccc2C1=O
inactive | O=C(NC[C@@H]1c2ccccc2CCN1C(=O)[C@@H]1CCCC[C@@H]1C(=O)O)c1ccc(CN2CCOCC2)cc1
